These results are taken from US7714146B2, “Azulene-oxindole compounds as multiple-kinase inhibitors and useful as anticancer agents” (Industrial Technology Research Institute, priority 2006, dated 2010).

What all share (assay type): biochemical
In test [1] the target is T1, human c-KIT (Thr544-Val976) (Homo sapiens, UniProt P10721).
T1 construct: human c-KIT (Thr544-Val976); GST (N); purchased Cell Signaling Technology; host or cells: baculovirus expression system
Description: c-KIT kinase assay (HTScan kit, DELFIA). Conditions: for inhibition at 0.1 µM: compound at 0.1 μM, read-out: c-KIT 0.1 μM, % of inhibition relative to control; for inhibition at 1 µM: compound at 1 μM, read-out: c-KIT 1 μM, % of inhibition relative to control. Here is the method: (§1) Compounds 1-100 were treated for their efficacy in inhibiting activities of FLT-3, c-KIT, KDR/Flk-1, PDGFR-beta, EGFR, and PKC kinases by biochemical DELFIA (Dissociation Enhanced Lanthanide FIA) assays according to the procedure described below. The assays were conducted by, Division of Cell Engineering, Biomedical Engineering Research Laboratories, Industrial Technology Research Institute, Bldg. 53, 195, sec. 4, Chung Hsing Rd. Chutung, Hsinchu, Taiwan 310, R.O.C.
(§2) The c-KIT assay was conducted following the protocol described in Protocol for HTScan® c-KIT Kinase Assay Kit (Cell Signaling Technology®). The assay was conducted under the following conditions: c-KIT source: The GST-c-KIT fusion protein was produced using a baculovirus expression system with a construct expressing human c-KIT (Thr544-Val976) with an amino-terminal GST tag, substrate: 1.5 μM This biotinylated peptide contains the residues surrounding Tyr-996 of KDR, vehicle: 1% DMSO, pre-incubation time/temperature: 5 minutes at room temperature, incubation time/temperature: 30 minutes at room temperature, incubation buffer: 60 mM HEPES pH 7.5, 5 mM MgCl2, 5 mM MnCl2, 3 μM Na3VO4, 1.25 mM DTT, 20 μM ATP, and quantitative method: DELFIA® Assay.

For test [2], the target named is T2, human FLT-3 (Arg571-Ser993) (Homo sapiens, UniProt P36888).
T2 construct: human FLT-3 (Arg571-Ser993); GST (N); purchased Cell Signaling Technology; host or cells: baculovirus expression system
T2 sequence (P36888 571-993): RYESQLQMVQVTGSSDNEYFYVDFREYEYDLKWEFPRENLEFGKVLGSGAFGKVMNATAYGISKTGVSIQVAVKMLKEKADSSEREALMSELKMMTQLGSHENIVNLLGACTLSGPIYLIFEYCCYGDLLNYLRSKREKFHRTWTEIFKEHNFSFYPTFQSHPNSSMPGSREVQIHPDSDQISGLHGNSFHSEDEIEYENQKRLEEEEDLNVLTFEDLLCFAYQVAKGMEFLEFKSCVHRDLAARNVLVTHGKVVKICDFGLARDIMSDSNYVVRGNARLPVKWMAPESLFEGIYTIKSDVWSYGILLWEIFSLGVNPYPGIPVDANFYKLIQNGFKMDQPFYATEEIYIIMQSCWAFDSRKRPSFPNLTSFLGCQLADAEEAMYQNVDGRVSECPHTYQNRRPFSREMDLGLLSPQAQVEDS
Description: FLT-3 kinase assay (HTScan kit, DELFIA). Conditions: for inhibition at 0.1 µM: compound at 0.1 μM, read-out: FLT-3 0.1 μM, % of inhibition relative to control; for inhibition at 1 µM: compound at 1 μM, read-out: FLT-3 1 μM, % of inhibition relative to control. Here is the method: as §1
as §2, with “FLT-3” for “c-KIT”, “GST-kinase” for “GST-c-KIT”, “FLT-3 (Arg571-Ser993) (GenBank accession No. NM_004119)” for “c-KIT (Thr544-Val976)”, “Gastrin Precursor Biotinylated Peptide (with Tyr87 as phosphorylation site),” for “This biotinylated peptide contains the residues surrounding Tyr-996 of KDR,”

For test [3], the target named is T3, human VEGFR-2 (Val789-Val1356) (Homo sapiens, UniProt P35968).
T3 construct: human VEGFR-2 (Val789-Val1356); GST (N); purchased Cell Signaling Technology; host or cells: baculovirus expression system
Description: KDR kinase assay (HTScan VEGFR-2 kit, DELFIA). Conditions: for inhibition at 0.1 µM: compound at 0.1 μM, read-out: KDR 0.1 μM, % of inhibition relative to control; for inhibition at 1 µM: compound at 1 μM, read-out: KDR 1 μM, % of inhibition relative to control. Here is the method: as §1
as §2, with “The KDR” for “The c-KIT”, “HTScan® VEGFR-2” for “HTScan® c-KIT”, “conditions: KDR” for “conditions: c-KIT”, “The GST-Kinase” for “The GST-c-KIT”, “human VEGFR-2 (Val789-Val1356) (GenBank Accession No. NM_002253)” for “human c-KIT (Thr544-Val976)”, “μM Gastrin Precursor Biotinylated Peptide (with Tyr87 as phosphorylation site),” for “μM This biotinylated peptide contains the residues surrounding Tyr-996 of KDR,”

T1 sequence (P10721 544-976): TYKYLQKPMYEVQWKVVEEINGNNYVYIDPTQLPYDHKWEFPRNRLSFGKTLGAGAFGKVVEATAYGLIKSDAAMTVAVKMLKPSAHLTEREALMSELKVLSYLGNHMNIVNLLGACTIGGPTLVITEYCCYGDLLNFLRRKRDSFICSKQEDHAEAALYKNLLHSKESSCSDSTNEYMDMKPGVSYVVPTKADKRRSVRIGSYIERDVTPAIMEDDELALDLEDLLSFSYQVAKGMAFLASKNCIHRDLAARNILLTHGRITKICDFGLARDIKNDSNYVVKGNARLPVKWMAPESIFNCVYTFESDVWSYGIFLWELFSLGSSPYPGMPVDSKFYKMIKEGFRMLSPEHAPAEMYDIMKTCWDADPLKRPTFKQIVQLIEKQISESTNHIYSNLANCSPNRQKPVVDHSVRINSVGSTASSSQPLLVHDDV
T3 sequence (P35968 789-1356): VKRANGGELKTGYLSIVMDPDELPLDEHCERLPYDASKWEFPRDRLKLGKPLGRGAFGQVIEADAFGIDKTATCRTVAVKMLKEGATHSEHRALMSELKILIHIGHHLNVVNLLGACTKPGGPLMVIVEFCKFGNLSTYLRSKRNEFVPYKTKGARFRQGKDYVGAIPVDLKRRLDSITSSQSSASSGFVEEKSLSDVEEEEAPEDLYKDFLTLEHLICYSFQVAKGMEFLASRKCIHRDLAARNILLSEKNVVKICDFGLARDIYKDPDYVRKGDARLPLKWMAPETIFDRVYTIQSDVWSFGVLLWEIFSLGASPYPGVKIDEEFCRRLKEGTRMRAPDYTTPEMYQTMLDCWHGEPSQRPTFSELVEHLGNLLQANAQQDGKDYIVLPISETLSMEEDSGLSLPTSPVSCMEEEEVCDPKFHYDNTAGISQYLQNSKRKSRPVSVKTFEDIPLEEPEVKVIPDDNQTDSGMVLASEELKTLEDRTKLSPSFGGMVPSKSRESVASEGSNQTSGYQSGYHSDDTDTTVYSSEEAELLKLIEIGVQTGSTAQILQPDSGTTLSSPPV

For orientation: inhibition means the percentage by which the read-out fell short of the control. As for `Cc1[nH]c(/C=C2\C(=O)Nc3ccc(F)cc32)c2ccc(=O)ccc12` [Compound 63, 1-(5-Fluoro-2-oxo-1,2-dihydro-indol-3-ylidenemethyl)-3-methyl-2H-cyclohepta[c]pyrrol-6-one], the inhibition at 0.1 µM came out at 57.1% in test [1], 50.5% in test [2] and 6.7% in test [3]. The inhibition at 1 µM in test [1] was 57.1%; in test [2], 55.7%; in test [3], 32.2%.

`O=C1Nc2ccc(F)cc2/C1=C/c1cc(F)c2cccccc1-2` [Compound 60, 5-Fluoro-3-(3-fluoro-azulen-1-ylmethylene)-1,3-dihydro-indol-2-one]: the inhibition at 0.1 µM in test [1] amounted to 28.3%; in test [2], 52.6%; in test [3], 55.6%. The inhibition at 1 µM in test [1] is 28.3%; in test [2] it was 52.8%; in test [3], 40.3%.

On to `COc1ccc2c(c1)NC(=O)/C2=C/c1ccc2cccccc1-2` [Compound 30, 3-Azulen-1-ylmethylene-6-methoxy-1,3-dihydro-indol-2-one], for which the inhibition at 0.1 µM in test [1] was 26.9%; in test [2], 7.3%; in test [3], 9.5%. For the same compound, the inhibition at 1 µM in test [1] was 26.9%; in test [2], 34.6%; in test [3], 15.6%.

For `CCc1cc(C=C2C(=O)Nc3ccc(F)cc32)c2cccccc1-2` [Compound 80, 3-(3-Ethyl-azulen-1-ylmethylene)-5-fluoro-1,3-dihydro-indol-2-one], the inhibition at 0.1 µM turned out to be 29.6% in test [1], 17.6% in test [2] and 30.2% in test [3]. Also, the inhibition at 1 µM in test [1] stood at 29.6%; in test [2], 19.7%; in test [3] it was 32%.

Consider `CN(C)CCNC(=O)c1cc(/C=C2/C(=O)Nc3ccc(F)cc32)c2cccccc1-2` [Compound 67, 3-(5-Fluoro-2-oxo-1,2-dihydro-indol-3-ylidenemethyl)-azulene-1-carboxylic acid (2-dimethylamino-ethyl)-amide], for which, in test [1], the inhibition at 0.1 µM is 30.2%. Also, the values for the inhibition at 1 µM in test [1], in test [2] and in test [3] were 30.2%, 14% and 7.4%, respectively.

Consider `O=C1Nc2ccc(F)cc2/C1=C/c1c2cccccc-2oc1=O` [Compound 62, 5-Fluoro-3-(2-oxo-2H-cyclohepta[b]furan-3-ylmethylene)-1,3-dihydro-indol-2-one], for which the inhibition at 0.1 µM in test [1] is 45.6%; in test [2] it was 68.3%; in test [3], 21.9%. In addition, the inhibition at 1 µM in test [1] was found to be 45.6%; in test [2] it was 74.9%; in test [3] it was 35.1%.

For `Cc1cc(C=C2C(=O)Nc3cc(C(F)(F)F)ccc32)c2ccccc(OCCCN(C)C)c1-2` [Compound 94, 3-[4-(3-Dimethylamino-propoxy)-3-methyl-azulen-1-ylmethylene]-6-trifluoromethyl-1,3-dihydro-indol-2-one], the results for the inhibition at 0.1 µM in test [1], in test [2] and in test [3] were 47.6%, 6.5% and 35.8%, respectively. The inhibition at 1 µM in test [1] amounted to 47.6%; in test [2] it was 14.4%; in test [3], 52.4%.

On to `O=C1Nc2ccccc2/C1=C\c1ccc2cccccc1-2` [Compound 19, 3-Azulen-1-ylmethylene-1,3-dihydro-indol-2-one], for which the inhibition at 0.1 µM in test [1] turned out to be 0.6%; in test [3] it was 33.8%. The figures for the inhibition at 1 µM in test [1], in test [2] and in test [3] were 0.6%, 7.6% and 22.1%, respectively.

As for `O=C1Nc2ccc(F)cc2/C1=C\c1ccc2cccc-2cc1` [Compound 53, 3-Azulen-6-ylmethylene-5-fluoro-1,3-dihydro-indol-2-one], the inhibition at 0.1 µM in test [1] is 39.8%; in test [2], 30.6%; in test [3], 16.3%. The inhibition at 1 µM turned out to be 39.8% in test [1], 52.7% in test [2] and 20.1% in test [3].

As for `Nc1cc2cccccc-2c1C=C1C(=O)Nc2ccc(F)cc21` [Compound 64, 3-(2-Amino-azulen-1-ylmethylene)-5-fluoro-1,3-dihydro-indol-2-one], the results for the inhibition at 0.1 µM in test [1], in test [2] and in test [3] were 34.2%, 68.3% and 46.5%, respectively. In addition, the values for the inhibition at 1 µM in test [1], in test [2] and in test [3] were 34.2%, 74.9% and 47.8%, respectively.

For the compound `O=C1Nc2ccc(F)cc2/C1=C\c1ccc2cccccc1-2` [Compound 25, 3-Azulen-1-ylmethylene-5-fluoro-1,3-dihydro-indol-2-one], the values for the inhibition at 0.1 µM in test [1], in test [2] and in test [3] were 75%, 26.2% and 7.7%, respectively. In addition, the results for the inhibition at 1 µM in test [1], in test [2] and in test [3] were 75%, 58.8% and 45.7%, respectively.

With `Cc1cc(C=C2C(=O)Nc3c(F)cccc32)c2ccccc(OCCCN(C)C)c1-2` [Compound 99, 3-[4-(3-Dimethylamino-propoxy)-3-methyl-azulen-1-ylmethylene]-7-fluoro-1,3-dihydro-indol-2-one], the inhibition at 0.1 µM in test [1] is 34.4%; in test [2], 7.3%; in test [3], 28.7%. The values for the inhibition at 1 µM in test [1], in test [2] and in test [3] were 34.4%, 59.4% and 73.9%, respectively.

In the case of `O=C1Nc2cc(Br)ccc2/C1=C\c1ccc2cccccc1-2` [Compound 28, 3-Azulen-1-ylmethylene-6-bromo-1,3-dihydro-indol-2-one], the results for the inhibition at 0.1 µM in test [1] and in test [2] were 6.8% and 1.9%, respectively. In addition, the inhibition at 1 µM in test [1] stood at 6.8%; in test [2], 24.5%; in test [3] it was 22.4%.

With `O=C1Nc2ccc(F)cc2/C1=C/c1c(Br)c2cccccc-2c1Br` [Compound 61, 3-(1,3-Dibromo-azulen-2-ylmethylene)-5-fluoro-1,3-dihydro-indol-2-one], the inhibition at 0.1 µM in test [1] is 30.5%; in test [2] it was 62.5%; in test [3] it was 44.2%. In addition, the inhibition at 1 µM in test [1] stood at 30.5%; in test [2], 42.5%; in test [3], 52.6%.
